We go through eleven molecules from patent publication US10207988B2, “Methods and compositions for treatment of cancer and autoimmune disease” (THE JACKSON LABORATORY, priority 2011, dated 2019).

For data set [1], the system named is normal C57BL/6J splenic B-cells (AID+/+) versus splenic B-cells from AID−/− mice. The data set is described as follows: screening of DIDS derivatives, MultiTox-Fluor Multiplex Cytotoxicity Assay. The class given is cell-based, mouse. Conditions: 10, 50 or 150 μM, 4 days of stimulation with anti-CD40 plus IL-4. The method, then:
To identify bioactive derivatives of DIDS, a library of 10^5 chemical variants of DIDS was generated by replacing the sulfonate or isothiocyanate group with other chemical entities, or by altering the double bond joining the two rings in the stilbene backbone. All compounds were resuspended in dimethyl sulfoxide (DMSO) at a stock concentration of […], and used by serial dilution to generate working concentrations of 10, 50, or 150 μM. These were individually pipetted into 96-well microtiter culture dishes in duplicate, generating two plates of 10 μM, two plates of 50 μM, and two plates of 150 μM compounds. In each set, one plate was seeded with 100,000 normal C57BL/6J splenic B-cells (AID+/+) isolated by magnetic bead based sorting to enrich for B220+ IgM+ B-cells; and one plate was seeded with 100,000 splenic B-cells from AID−/− mice identically isolated. Each culture was stimulated on day 0 by addition of 1 μg/ml anti-CD40 plus 25 ng/ml IL-4 to induce proliferation and class-switch recombination. After two days, each culture was re-stimulated by an additional 1 μg/ml anti-CD40 plus 25 ng/ml IL-4. After two additional days in culture, for a total of 4 days of stimulation, viable cell counts were determined in each well of each plate using the MultiTox-Fluor Multiplex Cytotoxicity Assay (Promega, Inc.). For viability measurements, 100 microliters of the 2× MultiTox-Fluor Multiplex Cytotoxicity Reagent was added to each well and mixed before incubating at 37° C. for 30 min. Plates were then transferred to a fluorescence-capable multiplate reader and analyzed using 400 nm excitation and detection of 505 nm emission to measure the fraction of remaining live cells. As controls, wells containing either vehicle alone (DMSO) or 150 μM DIDS were included on each plate. Viability scores for each compound were determined as the fraction of live cells in the normal B-cell plate divided by the fraction of live cells in the corresponding AID knockout plate. Compounds that produce normal/AID knockout ratios at or below the level of the DIDS ratio were considered candidate compounds for further validation and testing. […] The initial screen identified 10 derivatives, BB5-6, BB1-6, BB1-7, BB2-6, BB2-5, BB5-39, BB4B-2, BB5-4, BB5-47, and BB8-1 (FIG. 10).

Data set [2] has as its system primary AID-knockout mouse splenocytes. The data set is described as follows: viability of activated AID-null splenocytes treated with NS-123 (Trypan blue). It counts as cell-based. The method, then:
Primary mouse B-cells were isolated from spleens of adult AID−/− mice as described in Example 1. Cultures were established at a concentration of 1×10^6 cells per ml in RPMI-1640 medium with 10% FBS. Cultures were activated with anti-CD40 antibody plus IL-4, and treated with 4′-Bromo-3′ nitropropiophenone (NS-123) (purchased from Calbiochem; CAS No. 101860-83-7) at concentrations of 0.5, 5, 50, or 500 μM. Cells were re-activated by anti-CD40 plus IL-4 after two days in culture. Cell counts were determined after 1, 2, 3, and 4 days in culture by Trypan blue staining. At the concentration of 50 μM and 500 μM of NS-123 AID-null splenocytes were not viable. At the concentration of 5 μM of NS-123 the viability of the splenocytes is reduced when compared to untreated splenocytes (FIG. 12).
Primary AID-knockout mouse splenocytes were seeded in cultures at day 0 at a concentration of 1×10^6 cells/ml in RPMI-1640 medium supplemented with anti-CD40 plus IL-4 to activate B-cells. Individual cultures were supplemented with 0, 5, 10, 20, 30, 40, or 50 μM NS-123 and viable cells were counted after Trypan blue staining on days 1, 2, 3, and 4 (FIG. 13).

Data set [3] concerns U251, HT-29 and A549 tumor cells. The settings on record: cited from earlier work.

Regarding `CC(C)S(=O)(=O)Nc1ccc(/C=C/c2ccc(NS(=O)(=O)C(C)C)cc2)cc1` [BB1-6, (E)-N,N′-(ethene-1,2-diylbis(4,1-phenylene))bis(propane-2-sulfonamide)], the “viability score: fraction of live cells AID+/+ divided by fraction of live cells AID−/− (hit: ratio less than 1)” value in data set [1] was “identified”.

Consider `CN(C)S(=O)(=O)Nc1ccc(/C=C/c2ccc(NS(=O)(=O)N(C)C)cc2)cc1` [BB1-7, (E)-N,N′-(ethene-1,2-diylbis(4,1-phenylene))bis(dimethylamino-sulfonamide)], for which the “viability score: fraction of live cells AID+/+ divided by fraction of live cells AID−/− (hit: ratio less than 1)” value in data set [1] is “identified”.

With `CN(C)c1ccc(/C=C/c2ccc(NS(=O)(=O)C3CC3)cc2)cc1` [BB2-5, (E)-N-(4-(4-(dimethylamino)styryl)phenyl)cyclopropanesulfonamide], the “viability score: fraction of live cells AID+/+ divided by fraction of live cells AID−/− (hit: ratio less than 1)” value in data set [1] is on record as “identified”.

Turning to `CC(C)S(=O)(=O)Nc1ccc(/C=C/c2ccc(N(C)C)cc2)cc1` [BB2-6, (E)-N-(4-(4-(dimethylamino)styryl)phenyl)propane-2-sulfonamide], the “viability score: fraction of live cells AID+/+ divided by fraction of live cells AID−/− (hit: ratio less than 1)” value in data set [1] is “identified”.

As for `CC(C)NC(=O)Nc1ccc(CCc2ccc(NC(=O)NC(C)C)cc2S(=O)(=O)[O-])c(S(=O)(=O)[O-])c1.[Na+].[Na+]` [BB4B-2, sodium 6,6′-(ethane-1,2-diyl)bis(3-(3-isopropylureido)benzenesulfonate)], the “viability score: fraction of live cells AID+/+ divided by fraction of live cells AID−/− (hit: ratio less than 1)” value in data set [1] was “identified”.

In the case of `CC(=O)Nc1ccc(/C=C/c2ccc(NS(=O)(=O)C3CC3)cc2S(=O)(=O)[O-])c(S(=O)(=O)[O-])c1.[Na+].[Na+]` [BB5-4, sodium (E)-5-acetamido-2-(4-(cyclopropanesulfonamido)-2-sulfonatostyryl)benzenesulfonate], the “viability score: fraction of live cells AID+/+ divided by fraction of live cells AID−/− (hit: ratio less than 1)” value in data set [1] was “identified”.

Regarding `CC(=O)Nc1ccc(/C=C/c2ccc(NS(=O)(=O)N(C)C)cc2S(=O)(=O)[O-])c(S(=O)(=O)[O-])c1.[Na+].[Na+]` [BB5-6, sodium (E)-5-acetamido-2-(4-((N,N-dimethylsulfamoyl)amino)-2-sulfonatostyryl)benzenesulfonate], the “viability score: fraction of live cells AID+/+ divided by fraction of live cells AID−/− (hit: ratio less than 1)” value in data set [1] was “identified”.

For the molecule `CC(C)S(=O)(=O)Nc1ccc(/C=C/c2ccc(NC(=S)NC3CC3)cc2S(=O)(=O)[O-])c(S(=O)(=O)[O-])c1.[Na+].[Na+]` [BB5-39, sodium (E)-5-(3-cyclopropylthioureido)-2-(4-(1-methylethylsulfonamido)-2-sulfonatostyryl)benzenesulfonate], the “viability score: fraction of live cells AID+/+ divided by fraction of live cells AID−/− (hit: ratio less than 1)” value in data set [1] was “identified”.

Regarding `CCNC(=O)Nc1ccc(/C=C/c2ccc(NC(=O)COC)cc2S(=O)(=O)[O-])c(S(=O)(=O)[O-])c1.[Na+].[Na+]` [BB5-47, sodium (E)-5-(3-ethylureido)-2-(4-(2-methoxyacetamido)-2-sulfonatostyryl)benzenesulfonate], the “viability score: fraction of live cells AID+/+ divided by fraction of live cells AID−/− (hit: ratio less than 1)” value in data set [1] was “identified”.

Regarding `CNC(=O)c1ccc(/C=C/c2ccc(C(=O)NC)cc2)cc1` [BB8-1, (E)-4,4′-(ethene-1,2-diyl)bis(N-methylbenzamide)], the “viability score: fraction of live cells AID+/+ divided by fraction of live cells AID−/− (hit: ratio less than 1)” value in data set [1] is “identified”.

In the case of `CCC(=O)c1ccc(Br)c([N+](=O)[O-])c1` [NS-123, 1-(4-bromo-3-nitrophenyl)propan-1-one], the “viability of AID-null splenocytes” value in data set [2] (5 μM NS-123, compared to untreated splenocytes) was “reduced”; in data set [2] (50 μM NS-123, activated with anti-CD40 plus IL-4), “not viable”; in data set [2] (500 μM NS-123, activated with anti-CD40 plus IL-4), “not viable”. Further, the LD50 in data set [2] (AID-null splenocytes, activated with anti-CD40 plus IL-4) came out at 14 µM. In addition, the “concentration enhancing tumor growth-inhibitory effects of ionizing radiation” value in data set [3] (U251, HT-29 and A549 tumor cells) was approximately 5 µM. The “effect on normal cells and organisms” value in data set [3] (normal human glial cells, Zebrafish embryos and nude mice) was “no apparent effect”.
